Reference: PMC9817970 (Cancers, 2022)

Experiments:
Test in all cases: Kinase panel profiling
Format in all cases: biochemical
Conditions in all cases: 10 μM ATP
EPHB4 = biological target: T1, EPHB4 (Homo sapiens, UniProt P54760)
T1 construct: purchased Reaction Biology Corp
Procedure: (§1) Kinase panel profiling was conducted by Reaction Biology Corp. (San Diego, CA, USA). A single dose (1.0 μM) of 6r was tested against 371 recombinant human kinases in the presence of 10 μM ATP.

ZAP70 = biological target: T2, ZAP70 (Homo sapiens, UniProt P43403)
T2 construct: purchased Reaction Biology Corp
Procedure: as §1

AKT3 = biological target: T3, AKT3 (Homo sapiens, UniProt Q9Y243)
T3 construct: purchased Reaction Biology Corp
T3 sequence (Q9Y243 whole entry): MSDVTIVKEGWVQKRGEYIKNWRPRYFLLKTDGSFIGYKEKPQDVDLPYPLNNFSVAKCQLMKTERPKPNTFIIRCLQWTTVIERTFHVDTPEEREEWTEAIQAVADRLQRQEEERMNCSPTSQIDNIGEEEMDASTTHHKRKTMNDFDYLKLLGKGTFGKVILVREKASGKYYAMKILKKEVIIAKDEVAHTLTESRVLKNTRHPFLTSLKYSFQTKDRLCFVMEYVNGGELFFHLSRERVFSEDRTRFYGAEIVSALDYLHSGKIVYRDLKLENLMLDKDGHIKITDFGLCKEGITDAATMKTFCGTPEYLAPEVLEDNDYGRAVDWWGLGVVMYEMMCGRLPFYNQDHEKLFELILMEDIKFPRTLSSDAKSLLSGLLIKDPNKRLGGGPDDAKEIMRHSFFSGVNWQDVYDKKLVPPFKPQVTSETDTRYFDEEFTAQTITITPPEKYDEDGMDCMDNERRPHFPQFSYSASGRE
Procedure: as §1

ZIPK/DAPK3 = biological target: T4, ZIPK/DAPK3 (Homo sapiens, UniProt O43293)
T4 construct: purchased Reaction Biology Corp
Procedure: as §1

PDK1/PDPK1 = biological target: T5, PDK1/PDPK1 (Homo sapiens, UniProt O15530)
T5 construct: purchased Reaction Biology Corp
T5 sequence (O15530 whole entry): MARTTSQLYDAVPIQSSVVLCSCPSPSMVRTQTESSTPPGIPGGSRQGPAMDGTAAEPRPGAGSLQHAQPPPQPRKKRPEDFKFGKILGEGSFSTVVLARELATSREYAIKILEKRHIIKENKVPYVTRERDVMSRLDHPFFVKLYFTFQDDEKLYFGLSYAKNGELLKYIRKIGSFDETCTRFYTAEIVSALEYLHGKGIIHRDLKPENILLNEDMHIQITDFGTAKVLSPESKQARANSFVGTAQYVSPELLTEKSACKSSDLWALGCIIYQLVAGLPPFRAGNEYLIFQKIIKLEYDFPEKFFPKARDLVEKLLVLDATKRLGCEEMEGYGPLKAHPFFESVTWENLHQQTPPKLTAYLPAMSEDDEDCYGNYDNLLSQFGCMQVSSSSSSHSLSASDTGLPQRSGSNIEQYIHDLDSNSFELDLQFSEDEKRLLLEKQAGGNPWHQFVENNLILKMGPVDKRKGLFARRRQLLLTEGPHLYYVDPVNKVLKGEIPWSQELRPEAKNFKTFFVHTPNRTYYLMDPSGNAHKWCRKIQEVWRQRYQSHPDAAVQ
Procedure: as §1

LYN = biological target: T6, LYN (Homo sapiens, UniProt P07948)
T6 construct: purchased Reaction Biology Corp
T6 sequence (P07948 whole entry): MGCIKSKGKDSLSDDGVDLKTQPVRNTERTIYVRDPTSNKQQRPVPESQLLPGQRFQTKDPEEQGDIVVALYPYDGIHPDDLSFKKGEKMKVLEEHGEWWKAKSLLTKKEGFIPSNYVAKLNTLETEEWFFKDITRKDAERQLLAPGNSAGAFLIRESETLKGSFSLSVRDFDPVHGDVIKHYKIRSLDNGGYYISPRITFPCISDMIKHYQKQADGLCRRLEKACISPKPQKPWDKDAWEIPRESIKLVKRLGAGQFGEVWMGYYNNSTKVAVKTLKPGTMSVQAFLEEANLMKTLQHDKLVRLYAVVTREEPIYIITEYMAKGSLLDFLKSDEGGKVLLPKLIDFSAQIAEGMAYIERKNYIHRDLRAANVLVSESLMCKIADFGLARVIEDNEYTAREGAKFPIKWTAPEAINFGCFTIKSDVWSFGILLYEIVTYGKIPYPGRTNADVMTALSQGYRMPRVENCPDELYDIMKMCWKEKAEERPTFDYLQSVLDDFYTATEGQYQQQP
Procedure: as §1

RSK3 = biological target: T7, RSK3 (Homo sapiens, UniProt Q15349)
T7 construct: purchased Reaction Biology Corp
Procedure: as §1

LATS1 = biological target: T8, LATS1 (Homo sapiens, UniProt O95835)
T8 construct: purchased Reaction Biology Corp
T8 sequence (O95835 whole entry): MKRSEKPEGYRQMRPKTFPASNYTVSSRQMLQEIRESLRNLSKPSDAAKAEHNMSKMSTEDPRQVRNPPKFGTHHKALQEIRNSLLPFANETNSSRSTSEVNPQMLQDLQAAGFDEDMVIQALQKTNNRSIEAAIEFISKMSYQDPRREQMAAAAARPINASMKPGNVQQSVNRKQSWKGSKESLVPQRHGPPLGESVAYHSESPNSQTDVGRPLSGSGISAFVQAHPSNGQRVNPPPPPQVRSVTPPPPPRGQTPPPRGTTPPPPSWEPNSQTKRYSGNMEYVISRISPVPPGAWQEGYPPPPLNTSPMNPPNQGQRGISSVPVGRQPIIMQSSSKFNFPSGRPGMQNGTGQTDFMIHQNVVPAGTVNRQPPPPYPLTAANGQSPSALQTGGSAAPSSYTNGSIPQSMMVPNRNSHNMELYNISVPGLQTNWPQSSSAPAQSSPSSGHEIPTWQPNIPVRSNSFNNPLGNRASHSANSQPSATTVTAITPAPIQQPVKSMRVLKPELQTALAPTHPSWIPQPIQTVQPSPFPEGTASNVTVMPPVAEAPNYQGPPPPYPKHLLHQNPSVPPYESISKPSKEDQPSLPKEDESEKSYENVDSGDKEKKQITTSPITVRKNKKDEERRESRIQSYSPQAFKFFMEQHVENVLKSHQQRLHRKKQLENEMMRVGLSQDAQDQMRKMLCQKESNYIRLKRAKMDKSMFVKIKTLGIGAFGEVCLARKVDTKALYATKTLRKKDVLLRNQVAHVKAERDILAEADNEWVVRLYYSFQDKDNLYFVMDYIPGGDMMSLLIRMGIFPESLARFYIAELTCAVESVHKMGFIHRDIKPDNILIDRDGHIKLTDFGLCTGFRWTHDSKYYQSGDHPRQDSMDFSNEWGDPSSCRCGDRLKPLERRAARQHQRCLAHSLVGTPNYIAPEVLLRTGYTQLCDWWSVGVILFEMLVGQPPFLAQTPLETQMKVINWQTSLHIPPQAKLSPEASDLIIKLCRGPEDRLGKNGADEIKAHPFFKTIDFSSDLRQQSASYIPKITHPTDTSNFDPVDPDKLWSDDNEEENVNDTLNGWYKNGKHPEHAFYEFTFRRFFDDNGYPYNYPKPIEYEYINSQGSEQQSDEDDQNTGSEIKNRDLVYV
Procedure: as §1

WNK1 = biological target: T9, WNK1 (Homo sapiens, UniProt Q9H4A3)
T9 construct: purchased Reaction Biology Corp
Procedure: as §1

PKA = biological target: T10, PKA (Homo sapiens, UniProt P17612)
T10 construct: purchased Reaction Biology Corp
Procedure: as §1

ABL2/ARG = biological target: T11, ABL2/ARG (Homo sapiens, UniProt P42684)
T11 construct: purchased Reaction Biology Corp
Procedure: as §1

CAMK1a = biological target: T12, CAMK1a (Homo sapiens, UniProt Q14012)
T12 construct: purchased Reaction Biology Corp
Procedure: as §1

PRKX = biological target: T13, PRKX (Homo sapiens, UniProt P51817)
T13 construct: purchased Reaction Biology Corp
Procedure: as §1

PAK1 = biological target: T14, PAK1 (Homo sapiens, UniProt Q13153)
T14 construct: purchased Reaction Biology Corp
T14 sequence (Q13153 whole entry): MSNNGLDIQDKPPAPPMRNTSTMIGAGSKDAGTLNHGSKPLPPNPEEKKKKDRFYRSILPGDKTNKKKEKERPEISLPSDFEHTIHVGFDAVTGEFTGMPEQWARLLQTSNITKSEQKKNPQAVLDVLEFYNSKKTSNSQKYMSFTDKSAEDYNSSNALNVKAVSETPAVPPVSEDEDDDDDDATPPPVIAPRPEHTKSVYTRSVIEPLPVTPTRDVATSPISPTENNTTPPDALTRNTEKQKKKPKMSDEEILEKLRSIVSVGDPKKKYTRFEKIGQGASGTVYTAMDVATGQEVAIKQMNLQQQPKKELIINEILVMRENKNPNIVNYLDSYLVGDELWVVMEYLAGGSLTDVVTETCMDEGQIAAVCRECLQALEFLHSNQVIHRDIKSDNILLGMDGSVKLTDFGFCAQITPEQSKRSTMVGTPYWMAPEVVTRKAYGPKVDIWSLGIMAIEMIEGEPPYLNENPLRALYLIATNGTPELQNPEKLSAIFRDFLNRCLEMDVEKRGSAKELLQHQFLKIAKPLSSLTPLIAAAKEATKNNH
Procedure: as §1

CDK9/CYCLIN K = biological target: T15, CDK9/CYCLIN K (Homo sapiens, UniProt P50750)
T15 construct: purchased Reaction Biology Corp
Procedure: as §1

FGFR2 = biological target: T16, FGFR2 (Homo sapiens, UniProt P21802)
T16 construct: purchased Reaction Biology Corp
Procedure: as §1

FGR = biological target: T17, FGR (Homo sapiens, UniProt P09769)
T17 construct: purchased Reaction Biology Corp
Procedure: as §1

PKCb2 = biological target: T18, PKCb2 (Homo sapiens, UniProt P05771)
T18 construct: purchased Reaction Biology Corp
Procedure: as §1

P38d/MAPK13 = biological target: T19, P38d/MAPK13 (Homo sapiens, UniProt O15264)
T19 construct: purchased Reaction Biology Corp
Procedure: as §1

CDK5/P25 = biological target: T20, CDK5/P25 (Homo sapiens, UniProt Q00535)
T20 construct: purchased Reaction Biology Corp
Procedure: as §1

BRSK2 = biological target: T21, BRSK2 (Homo sapiens, UniProt Q8IWQ3)
T21 construct: purchased Reaction Biology Corp
Procedure: as §1

WNK3 = biological target: T22, WNK3 (Homo sapiens, UniProt Q9BYP7)
T22 construct: purchased Reaction Biology Corp
Procedure: as §1

TSSK3/STK22C = biological target: T23, TSSK3/STK22C (Homo sapiens, UniProt Q96PN8)
T23 construct: purchased Reaction Biology Corp
T23 sequence (Q96PN8 whole entry): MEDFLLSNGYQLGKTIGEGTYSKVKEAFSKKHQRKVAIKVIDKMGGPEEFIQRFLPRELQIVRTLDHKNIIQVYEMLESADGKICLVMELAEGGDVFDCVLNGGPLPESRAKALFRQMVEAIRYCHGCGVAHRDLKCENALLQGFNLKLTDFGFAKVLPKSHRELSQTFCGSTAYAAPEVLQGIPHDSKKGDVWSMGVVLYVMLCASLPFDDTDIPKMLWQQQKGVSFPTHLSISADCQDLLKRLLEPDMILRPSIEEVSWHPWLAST
Procedure: as §1

TTBK2 = biological target: T24, TTBK2 (Homo sapiens, UniProt Q6IQ55)
T24 construct: purchased Reaction Biology Corp
Procedure: as §1

BMPR2 = biological target: T25, BMPR2 (Homo sapiens, UniProt Q13873)
T25 construct: purchased Reaction Biology Corp
Procedure: as §1

RSK1 = biological target: T26, RSK1 (Homo sapiens, UniProt Q15418)
T26 construct: purchased Reaction Biology Corp
T26 sequence (Q15418 whole entry): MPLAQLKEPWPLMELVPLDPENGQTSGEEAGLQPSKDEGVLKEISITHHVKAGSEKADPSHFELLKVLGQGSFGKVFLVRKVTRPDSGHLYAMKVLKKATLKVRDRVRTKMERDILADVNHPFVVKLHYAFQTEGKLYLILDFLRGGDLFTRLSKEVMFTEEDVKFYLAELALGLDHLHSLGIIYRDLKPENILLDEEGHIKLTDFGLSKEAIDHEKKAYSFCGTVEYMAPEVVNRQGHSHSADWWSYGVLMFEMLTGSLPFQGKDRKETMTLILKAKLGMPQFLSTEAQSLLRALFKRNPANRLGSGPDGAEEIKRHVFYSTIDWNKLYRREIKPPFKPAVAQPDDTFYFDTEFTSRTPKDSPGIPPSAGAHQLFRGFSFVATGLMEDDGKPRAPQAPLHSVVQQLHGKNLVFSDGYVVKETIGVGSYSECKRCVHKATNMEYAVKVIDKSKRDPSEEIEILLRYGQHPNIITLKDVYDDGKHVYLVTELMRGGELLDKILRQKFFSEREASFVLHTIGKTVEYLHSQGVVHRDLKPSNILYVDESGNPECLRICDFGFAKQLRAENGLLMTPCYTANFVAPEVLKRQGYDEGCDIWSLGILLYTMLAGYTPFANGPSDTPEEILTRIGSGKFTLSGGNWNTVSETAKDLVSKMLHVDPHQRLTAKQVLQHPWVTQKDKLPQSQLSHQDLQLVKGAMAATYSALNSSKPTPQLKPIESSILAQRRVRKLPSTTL
Procedure: as §1

CDK7/cyclin H = biological target: T27, CDK7/cyclin H (Homo sapiens, UniProt P50613)
T27 construct: purchased Reaction Biology Corp
Procedure: as §1

HIPK4 = biological target: T28, HIPK4 (Homo sapiens, UniProt Q8NE63)
T28 construct: purchased Reaction Biology Corp
Procedure: as §1

TGFBR2 = biological target: T29, TGFBR2 (Homo sapiens, UniProt P37173)
T29 construct: purchased Reaction Biology Corp
T29 sequence (P37173 23-567): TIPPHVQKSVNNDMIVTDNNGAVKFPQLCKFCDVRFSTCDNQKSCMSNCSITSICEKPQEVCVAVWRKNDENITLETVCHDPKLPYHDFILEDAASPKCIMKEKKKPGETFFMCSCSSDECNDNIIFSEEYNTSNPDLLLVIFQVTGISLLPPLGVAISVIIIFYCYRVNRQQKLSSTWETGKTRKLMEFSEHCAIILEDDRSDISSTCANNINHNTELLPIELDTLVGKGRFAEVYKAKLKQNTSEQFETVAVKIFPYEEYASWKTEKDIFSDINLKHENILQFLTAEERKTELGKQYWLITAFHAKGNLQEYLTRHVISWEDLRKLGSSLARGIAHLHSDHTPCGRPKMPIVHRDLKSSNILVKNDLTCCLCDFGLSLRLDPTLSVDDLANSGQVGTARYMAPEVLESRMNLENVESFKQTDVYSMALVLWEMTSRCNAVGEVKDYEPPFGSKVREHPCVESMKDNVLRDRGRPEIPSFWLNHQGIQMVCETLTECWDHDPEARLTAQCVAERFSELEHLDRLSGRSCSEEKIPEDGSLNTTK
Procedure: as §1

ROS/ROS1 = biological target: T30, ROS/ROS1 (Homo sapiens, UniProt P08922)
T30 construct: purchased Reaction Biology Corp
Procedure: as §1

CDK1/cyclin A = biological target: T31, CDK1/cyclin A (Homo sapiens, UniProt P06493)
T31 construct: purchased Reaction Biology Corp
Procedure: as §1

MYLK4 = biological target: T32, MYLK4 (Homo sapiens, UniProt Q86YV6)
T32 construct: purchased Reaction Biology Corp
Procedure: as §1

IKKa/CHUK = biological target: T33, IKKa/CHUK (Homo sapiens, UniProt O15111)
T33 construct: purchased Reaction Biology Corp
Procedure: as §1

TAOK1 = biological target: T34, TAOK1 (Homo sapiens, UniProt Q7L7X3)
T34 construct: purchased Reaction Biology Corp
Procedure: as §1

PDGFRb = biological target: T35, PDGFRb (Homo sapiens, UniProt P09619)
T35 construct: purchased Reaction Biology Corp
Procedure: as §1

CAMK4 = biological target: T36, CAMK4 (Homo sapiens, UniProt Q16566)
T36 construct: purchased Reaction Biology Corp
Procedure: as §1

ERBB4/HER4 = biological target: T37, ERBB4/HER4 (Homo sapiens, UniProt Q15303)
T37 construct: purchased Reaction Biology Corp
Procedure: as §1

MYO3b = biological target: T38, MYO3b (Homo sapiens, UniProt Q8WXR4)
T38 construct: purchased Reaction Biology Corp
Procedure: as §1

PKAcb = biological target: T39, PKAcb (Homo sapiens, UniProt P22694)
T39 construct: purchased Reaction Biology Corp
Procedure: as §1

JAK1 = biological target: T40, JAK1 (Homo sapiens, UniProt P23458)
T40 construct: purchased Reaction Biology Corp
Procedure: as §1

PKAcg = biological target: T41, PKAcg (Homo sapiens, UniProt P22612)
T41 construct: purchased Reaction Biology Corp
Procedure: as §1

FLT3 = biological target: T42, FLT3 (Homo sapiens, UniProt P36888)
T42 construct: purchased Reaction Biology Corp
Procedure: as §1

With `Cc1ccc(NC(=O)c2ccc(CN3CCN(C)CC3)c(C(F)(F)F)c2)cc1-c1cnc2sc(N)nc2c1` [6r] as the compound, how does the inhibition at 1 µM (EPHB4) read?
The inhibition at 1 µM was 27.3%.

What about the inhibition at 1 µM (ZAP70) of the same compound?
Its inhibition at 1 µM is 8.7%.

What about the inhibition at 1 µM (AKT3) of the same compound?
The inhibition at 1 µM was 13.6%.

And the inhibition at 1 µM (ZIPK/DAPK3)?
Its inhibition at 1 µM is 6.7%.

What about the inhibition at 1 µM (PDK1/PDPK1) of the same compound?
Its inhibition at 1 µM is 7.2%.

And the inhibition at 1 µM (LYN)?
The inhibition at 1 µM was 97.5%.

And the inhibition at 1 µM (RSK3)?
Its inhibition at 1 µM is 5.4%.

What about the inhibition at 1 µM (LATS1) of the same compound?
The inhibition at 1 µM was 1.5%.

And the inhibition at 1 µM (WNK1)?
The inhibition at 1 µM was 6.9%.

And the inhibition at 1 µM (PKA)?
Its inhibition at 1 µM is 5.3%.

And the inhibition at 1 µM (ABL2/ARG)?
The inhibition at 1 µM was 87.2%.

What about the inhibition at 1 µM (CAMK1a) of the same compound?
The inhibition at 1 µM was 8%.

And the inhibition at 1 µM (PRKX)?
Its inhibition at 1 µM is 12.8%.

And the inhibition at 1 µM (PAK1)?
The inhibition at 1 µM was 6.9%.

What about the inhibition at 1 µM (CDK9/CYCLIN K) of the same compound?
The inhibition at 1 µM was 0%.

And the inhibition at 1 µM (FGFR2)?
Its inhibition at 1 µM is 43%.

And the inhibition at 1 µM (FGR)?
Its inhibition at 1 µM is 87.7%.

What about the inhibition at 1 µM (PKCb2) of the same compound?
Its inhibition at 1 µM is 12.7%.

What about the inhibition at 1 µM (P38d/MAPK13) of the same compound?
Its inhibition at 1 µM is 0%.

What about the inhibition at 1 µM (CDK5/P25) of the same compound?
The inhibition at 1 µM was 8.7%.

And the inhibition at 1 µM (BRSK2)?
Its inhibition at 1 µM is 7.2%.

What about the inhibition at 1 µM (WNK3) of the same compound?
The inhibition at 1 µM was 7.1%.

And the inhibition at 1 µM (TSSK3/STK22C)?
The inhibition at 1 µM was 0%.

And the inhibition at 1 µM (TTBK2)?
The inhibition at 1 µM was 23.2%.

What about the inhibition at 1 µM (BMPR2) of the same compound?
Its inhibition at 1 µM is 20.6%.

What about the inhibition at 1 µM (RSK1) of the same compound?
Its inhibition at 1 µM is 23.4%.

What about the inhibition at 1 µM (CDK7/cyclin H) of the same compound?
Its inhibition at 1 µM is 3.2%.

And the inhibition at 1 µM (HIPK4)?
Its inhibition at 1 µM is 8.7%.

What about the inhibition at 1 µM (TGFBR2) of the same compound?
Its inhibition at 1 µM is 0%.

And the inhibition at 1 µM (ROS/ROS1)?
Its inhibition at 1 µM is 6.6%.

And the inhibition at 1 µM (CDK1/cyclin A)?
Its inhibition at 1 µM is 3.8%.

What about the inhibition at 1 µM (MYLK4) of the same compound?
The inhibition at 1 µM was 4.6%.

What about the inhibition at 1 µM (IKKa/CHUK) of the same compound?
Its inhibition at 1 µM is 4.8%.

What about the inhibition at 1 µM (TAOK1) of the same compound?
Its inhibition at 1 µM is 6.1%.

And the inhibition at 1 µM (PDGFRb)?
Its inhibition at 1 µM is 94.2%.

And the inhibition at 1 µM (CAMK4)?
Its inhibition at 1 µM is 3.2%.

And the inhibition at 1 µM (ERBB4/HER4)?
Its inhibition at 1 µM is 73.9%.

What about the inhibition at 1 µM (MYO3b) of the same compound?
Its inhibition at 1 µM is 0%.

And the inhibition at 1 µM (PKAcb)?
Its inhibition at 1 µM is 0%.

What about the inhibition at 1 µM (JAK1) of the same compound?
Its inhibition at 1 µM is 74.9%.

And the inhibition at 1 µM (PKAcg)?
The inhibition at 1 µM was 29.2%.

And the inhibition at 1 µM (FLT3)?
Its inhibition at 1 µM is 0%.
